Source: patent publication US20040013696A1, “Use of ellagic acid as an anti-pollution cosmetic agent” (priority 2000, published 2004)

Key:
[1] = test system: human keratinocytes; experiment: Covalent binding of 14C-benzo[a]pyrene to cell proteins (alkylation of nucleophiles); type: cell-based
Text: Polycyclic aromatic hydrocarbons (PAHs), adsorbed onto the surface of particles and dust conveyed by the urban atmosphere, can penetrate into skin tissue and be biotransformed therein. Their metabolism in the liver, which is well-described in the literature, leads to the formation of monohydroxylated metabolites (detoxification pathway), epoxides and diol epoxides (toxifying pathway). It follows the same profile in the skin. […] After consequent or repeated exposures to the pollutant, its potential toxicity can lead to a contact hypersensitivity in the case of the alkylation of proteins. […] The cells are inoculated on D-3 into 6-well dishes at a rate of 53 000 cells/cm^2. The incubations are performed at 37° C. in humid atmosphere enriched with 5% CO2. […] The covalent binding to cell proteins is measured according to the protocol of Hoellinger et al., adapted to a filtration method in 96-well microplates (H. Hoellinger, M. Sonnier, J. Gray, T. A. Connors, J. Pichon and N. H. Nam. In vitro covalent binding of […], bioresmethrin and their common alcohol to hepatic proteins. Toxicol. Appl. Pharmacol., 1985, 77, 11-18). […] The aim of this series of washes is to remove from the proteins any radioactivity not covalently bound. […] Samples are then taken to assay the proteins and count the radioactivity of the solution. The results are expressed as nmol of B[a]P bound per mg of proteins.

[2] = test system: human keratinocytes
Procedure: The study was performed on a monolayer culture of human keratinocytes obtained from plastic surgeries. The cells are inoculated on D-3 into 96-well dishes at a rate of 25 000 cells/cm^2 in 100 μl of culture medium. The incubations are performed at 37° C. in a humid atmosphere enriched with 5% CO2.
Initially, the cells are treated for 24 hours with increasing concentrations (0, 10, 25, 50, 75, 100, 150 and 200 μM) of cadmium chloride (CdCl2), so as to determine its cytotoxicity. […]
At the end of the treatment, the cell viability is determined by means of the neutral red incorporation test (POS 55/006) and reading at 550 nm (ref: Borenfreund, E and Puerner, J. A. (1984) A simple quantitative procedure using monolayer cultures for cytotoxicity assays. Tissue Culture Methods; 9: 7-9).
The cells are rinsed with PBS buffer in order to remove the treatment solutions, and are then incubated for three hours at 37° C. in a neutral red solution (100 μl) prepared to a concentration of 0.5 mg/ml in the culture medium. […] The amount extracted is determined by reading the optical density on a spectrophotometer at 550 nm.
The concentration of CdCl2 that induces a 50% drop in the cell viability (IC-50) is then calculated.

[3] = test system: human keratinocytes; experiment: Protection against the effects of ozone: ozone-induced lipid hydroperoxides (DCFH-DA fluorescence); type: cell-based; settings: ellagic acid 200 μM; for % fluorescence observed ± SEM, relative to the unprotected controls: ozone 10 ppm
Procedure: Ozone has the capacity to oxidize cell constituents, especially generating carbonylated proteins and lipid hydroperoxides. Quantification of the lipid hydroperoxides is one means of measuring the oxidative stress induced by an exposure of skin tissue to this pollutant. A decrease in their content indicates a protective effect of ellagic acid. […] The incubations are performed at 37° C., 5% CO2 in humid atmosphere. […] Hydroperoxides constitute an intracellular stress marker. They are detected and quantified by means of a fluorescence technique (Lebel C. P., Ischiropoulos H. and Bondy S. C. […] Chem. Res. Toxicol.: 5: 227-231). […] The cells, pretreated for 24 hours with ellagic acid, are then washed with phosphate-buffered saline (PBS) and placed in contact for 30 minutes with a solution of DCFH-DA (500 μl/well), prepared in the culture medium to a concentration of 320 μM. […] They are then exposed to ozone (10 ppm), in a humid atmosphere, in an incubator set at 37° C. The formation of fluorescent DCF (excitation screen at 485 nm and emission screen at 530 nm) resulting from the production of hydroperoxides is measured after different times of exposure to ozone: 0, 5, 10 and 20 minutes. […] For each time, the fluorescence values of the unprotected controls are set at 100%. The resulting values in the presence of ellagic acid are then expressed relative to this control value. […] This protection is at a maximum from 5 minutes of exposure onward (71.8% drop in induced stress). It is still significant after 20 minutes of exposure (47.7% drop in induced stress).

In the case of `c1ccc2c(c1)cc1ccc3cccc4ccc2c1c34` [B (a) P, benzo(a)pyrene, reference compound], the “covalent binding to keratinocyte proteins” value ([1]; benzo(a)pyrene alone at 20 μM) is reported as 0.28 nmol of B(a)P per mg of protein.

With `[Cl][Cd][Cl]` [cadmium chloride, reference compound] the IC50 ([2]; read-out: IC-50 of cadmium chloride, Mean ± SEM, without ellagic acid, 24 hours, n=4) was 39 µM.

`O=c1oc2c(O)c(O)cc3c(=O)oc4c(O)c(O)cc1c4c23` [ellagic acid, 2,3,7,8-tetrahydroxy-(1)benzopyrano(5,4,3-cde)(1)benzopyran-5,10-dione] was tested, and the “drop in induced stress” value ([3]; 5 minutes of exposure to ozone) was 71.8%, the “drop in induced stress” value ([3]; 20 minutes of exposure to ozone) was 47.7% and the “% fluorescence observed ± SEM, relative to the unprotected controls” value ([3]; 5 min. of contact) was 28.2 ± 3.3%. The “% fluorescence observed ± SEM, relative to the unprotected controls” value ([3]; 10 min. of contact) was 36.3 ± 3.4%, the “% fluorescence observed ± SEM, relative to the unprotected controls” value ([3]; 20 min. of contact) was 52.3 ± 4.4% and the “maximum dose of ellagic acid noncytotoxic to the cells” value ([2]; human, 24 h) was 200 µM. The “reduction in the reactivity of B(a)P by a factor” value ([1]; in the presence of ellagic acid 100 μM) was 3.1.
